Laboratory results from BigSolDB 2.1.

CC(C)(c1ccc(O)cc1)c1ccc(O)cc1
solubility (mole fraction)
Conditions	273.15 K	278.15 K	283.15 K	288.15 K	293.15 K	298.15 K	303.15 K	308.15 K	313.15 K
in ethanol	0.209	0.214	0.22	0.226	0.232	0.238	0.245	0.252	0.26
in ethyl acetate	0.234	0.238	0.241	0.243	0.247	0.252	0.256	0.261	0.266
in n-butanol	0.0745	0.0832	0.094	0.106	0.119	0.135	0.147	0.166	0.183
in sec-butanol	0.0343	0.0391	0.0465	0.0564	0.0649	0.0725	0.0846	0.094	0.105
